Data on 26 molecules can be found in patent US11512097B2, “Heterocyclic compounds as Delta-5 desaturase inhibitors and methods of use” (Amgen Inc., priority 2019, dated 2022).

For orientation: IC50 means the concentration at which inhibition is half-maximal.

Structures are written as SMILES.

The target of this assay is T1, Delta-5-Desaturase (D5D), membrane preparations of D5D-overexpressing HEK293 6E cells (Homo sapiens, UniProt O60427).
T1 construct: expressed in transfected cells; host or cells: HEK293 6E cells (membrane preparation)
T1 sequence (O60427 whole entry, species assumed): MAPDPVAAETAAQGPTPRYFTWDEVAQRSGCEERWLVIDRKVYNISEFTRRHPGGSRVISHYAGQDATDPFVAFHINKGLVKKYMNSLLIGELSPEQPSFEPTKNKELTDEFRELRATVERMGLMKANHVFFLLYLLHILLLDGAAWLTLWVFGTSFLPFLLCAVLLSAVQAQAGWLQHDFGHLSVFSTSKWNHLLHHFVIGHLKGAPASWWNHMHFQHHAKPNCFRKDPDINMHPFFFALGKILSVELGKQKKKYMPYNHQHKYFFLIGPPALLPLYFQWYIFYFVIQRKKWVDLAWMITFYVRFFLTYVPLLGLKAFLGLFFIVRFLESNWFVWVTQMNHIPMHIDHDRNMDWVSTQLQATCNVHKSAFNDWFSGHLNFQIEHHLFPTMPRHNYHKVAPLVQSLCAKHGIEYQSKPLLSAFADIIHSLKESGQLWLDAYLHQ
As to the kind of experiment: In vitro measurement of Delta-5-Desaturase inhibitory activity using DGLA-CoA and Arachidonyl-CoA mass spectrometric assays. Type of assay: biochemical. Particulars: D5D membrane 10 μg/mL, one-hour incubation, average of at least two independent runs. The procedure:
In Vitro Measurement of Delta-5-Desaturase Inhibitory Activity Using DGLA-CoA and Arachidonyl-CoA Mass Spectrometric Assays Membrane preparations of D5D-overexpressing HEK293 6E cells were prepared in which the total protein concentration was 5.6 mg/mL. Stock D5D membrane preparations were diluted in D5D assay buffer (25 mM 2-amino-2-(hydroxymethyl)-1,3-propanediol, pH 7.5 containing 10 mM MgCl2, 1 mM octyl glucoside (SigmaAldrich O-8001), 1 mM tris(2-carboxyethyl)phosphine hydrochloride (SigmaAldrich 646547)) to a final D5D membrane concentration of 10 μg/mL in an assay plate containing serially diluted test compounds. To 15 μL of this D5D preparation was added 15 μL of a substrate solution (0.25 mM NADH (nicotinamide adenine dinucleotide, Roche Diag. 10107735001), 0.25 mM adenosine triphosphate (SigmaAldrich A-3377), 0.05 mM coenzyme A hydrate (SigmaAldrich C-4282), and 0.01 mM DGLA (dihomo-g-linolenic acid, Sigma E-4504) in the same D5D assay buffer. After one-hour incubation at ambient temperature acetonitrile (30 μL) was added to quench the reaction and plates were centrifuged for 10 min @ 3,000 rpm. Mass spectrometric analysis involved a Rapidfire 360 SPE system coupled to an ABSciex API4000 Triple Quadrupole mass spectrometer using a C18 SPE cartridge (G9203-80105) with ionization in negative mode (solvent A=100% water; solvent B=100% acetonitrile, each solvent containing 5 mM ammonium acetate). DGLA-CoA and Arachidonyl-CoA were detected by multiple reaction monitoring (MRM) of the doubly charged parent ions at m/z 526.6 and 525.6, respectively. […] Sx is value from unknown sample, So is value from DMSO alone and Sc is value from no enzyme well. For CRC analysis, the % of inhibitions were analysed with 4 Parameter Logistic Model or Sigmoidal Dose-Response Model using XLfit (IDBS, Guilford, UK). The potency of the test item was expressed as IC50 nM, corresponding to the test item concentration able to inhibit the 50% of the enzyme maximal response. IC50 values were averaged values determined by at least two independent runs. The results presented in Table 15 have been generated with the in vitro assay described above. This assay may be used to test any of the compounds described herein to assess and characterize a compound's ability to inhibit D5D.
As to `COCc1cn2c(=O)c(-c3cnn(CCC(F)(F)F)c3)c(C(F)(F)F)nc2n1C` [Example 63, 2-(methoxymethyl)-1-methyl-7-(trifluoromethyl)-6-[1-(3,3,3-trifluoropropyl)-1H-pyrazol-4-yl]-1H,5H-imidazo[1,2-a]pyrimidin-5-one], the IC50 was 0.16 µM.
Next, `Cc1cn2c(=O)c(-c3cnn(CCC(F)(F)F)c3)c(C(F)(F)F)nc2n1C[C@H]1CC1(F)F` (single isomer, unassigned) [Example 116]: 1.17 µM.
Next, `Cc1nn2c(=O)c(-c3ccc(OCC(F)(F)F)cc3)c(C(F)(F)F)nc2s1` [Example 40, 2-methyl-6-[4-(2,2,2-trifluoroethoxy)phenyl]-7-(trifluoromethyl)-5H-[1,3,4]thiadiazolo[3,2-a]pyrimidin-5-one]: 0.224 µM; `Cc1cn2c(=O)c(-c3ccc(OCC(F)(F)F)cc3)c(C(F)(F)F)nc2n1CCN(C)C` [Example 69, 1-[2-(dimethylamino)ethyl]-2-methyl-6-[4-(2,2,2-trifluoroethoxy)phenyl]-7-(trifluoromethyl)-1H,5H-imidazo[1,2-a]pyrimidin-5-one]: 13.5 µM; `O=c1c(-c2ccc(OCC(F)(F)F)cc2)c(C(F)(F)F)nc2sccn12` [Example 31, 6-[4-(2,2,2-trifluoroethoxy)phenyl]-7-(trifluoromethyl)-5H-[1,3]thiazolo[3,2-a]pyrimidin-5-one]: 0.0023 µM.
As to `COc1cn2c(=O)c(-c3cnn(CC(F)(F)C(F)(F)F)c3)c(C(F)(F)F)nc2n1C` [Example 71, 2-methoxy-1-methyl-6-[1-(2,2,3,3,3-pentafluoropropyl)-1H-pyrazol-4-yl]-7-(trifluoromethyl)-1H,5H-imidazo[1,2-a]pyrimidin-5-one], it took 0.0328 µM to reach half-maximal inhibition (IC50). This IC50 is about 14-fold higher than that of the molecule before.
Next, `COCc1nn2c(=O)c(-c3cnn(CC(F)(F)C(F)(F)F)c3)c(C(F)(F)F)nc2s1` [Example 42, 2-(methoxymethyl)-6-[1-(2,2,3,3,3-pentafluoropropyl)-1H-pyrazol-4-yl]-7-(trifluoromethyl)-5H-[1,3,4]thiadiazolo[3,2-a]pyrimidin-5-one]: 0.0274 µM; `[2H]C([2H])([2H])n1c(C)cn2c(=O)c(-c3cnn(CC(F)(F)C(F)(F)F)c3)c(C(F)(F)F)nc12` [Example 77, 1-(2H3)methyl-2-methyl-6-[1-(2,2,3,3,3-pentafluoropropyl)-1H-pyrazol-4-yl]-7-(trifluoromethyl)-1H,5H-imidazo[1,2-a]pyrimidin-5-one]: 0.024 µM.
`Cn1nnn2c(=O)c(-c3cnn(CC(F)(F)C(F)(F)F)c3)c(C(F)(F)F)nc12` [Example 28, 3-methyl-6-[1-(2,2,3,3,3-pentafluoropropyl)-1H-pyrazol-4-yl]-5-(trifluoromethyl)-3H,7H-[1,2,3,4]tetrazolo[1,5-a]pyrimidin-7-one] registered a half-maximal inhibitory concentration (IC50) of 0.006 µM. This IC50 is about 4-fold lower than that of the molecule before.
Next, `O=c1c(-c2cnn(CC(F)(F)C(F)(F)F)c2)c(C(F)(F)F)nc2n1CC1CC21` (centres unmarked) [Example 25, 8-[1-(2,2,3,3,3-pentafluoropropyl)-1H-pyrazol-4-yl]-9-(trifluoromethyl)-6,10-diazatricyclo[4.4.0.0^2,4]deca-1(10),8-dien-7-one]: 0.354 µM; `Cc1cn2c(=O)c(-c3cnn(CC(F)(F)C(F)(F)F)c3)c(C(F)(F)F)nc2n1CC#N` [Example 86, 2-{2-methyl-5-oxo-6-[1-(2,2,3,3,3-pentafluoropropyl)-1H-pyrazol-4-yl]-7-(trifluoromethyl)-1H,5H-imidazo[1,2-a]pyrimidin-1-yl}acetonitrile]: 0.0109 µM; `Cc1cn2c(=S)c(-c3cnn(CC(F)(F)C(F)(F)F)c3)c(C(F)(F)F)nc2n1C` [Example 92, 1,2-dimethyl-6-[1-(2,2,3,3,3-pentafluoropropyl)-1H-pyrazol-4-yl]-7-(trifluoromethyl)-1H,5H-imidazo[1,2-a]pyrimidine-5-thione]: 0.132 µM.
For `Cc1csc2nc(C(F)(F)F)c(-c3cnn(CC(F)(F)C(F)(F)F)c3)c(=O)n12` [Example 5, 3-methyl-6-[1-(2,2,3,3,3-pentafluoropropyl)-1H-pyrazol-4-yl]-7-(trifluoromethyl)-5H-[1,3]thiazolo[3,2-a]pyrimidin-5-one], the IC50 was 0.482 µM.
Next, `Cc1nn2c(=O)c(-c3ccn(CC(F)(F)C(F)(F)F)n3)c(C(F)(F)F)nc2s1` [Example 30, 2-methyl-6-[1-(2,2,3,3,3-pentafluoropropyl)-1H-pyrazol-3-yl]-7-(trifluoromethyl)-5H-[1,3,4]thiadiazolo[3,2-a]pyrimidin-5-one]: 17.9 µM; `CN1C(=O)Cn2c1nc(C(F)(F)F)c(-c1cnn(CC(F)(F)C(F)(F)F)c1)c2=O` [Example 3, 1-methyl-6-[1-(2,2,3,3,3-pentafluoropropyl)-1H-pyrazol-4-yl]-7-(trifluoromethyl)-1H,2H,3H,5H-imidazo[1,2-a]pyrimidine-2,5-dione]: 0.0257 µM; `COC(=O)n1c(C)cn2c(=O)c(-c3cnn(CC(F)(F)C(F)(F)F)c3)c(C(F)(F)F)nc12` [Example 80, methyl 2-methyl-5-oxo-6-[1-(2,2,3,3,3-pentafluoropropyl)-1H-pyrazol-4-yl]-7-(trifluoromethyl)-1H,5H-imidazo[1,2-a]pyrimidine-1-carboxylate]: 0.0547 µM.
The molecule `CC(C)N1C(=O)Cn2c1nc(C(F)(F)F)c(-c1cnn(CC(F)(F)C(F)(F)F)c1)c2=O` [Example 35, 6-[1-(2,2,3,3,3-pentafluoropropyl)-1H-pyrazol-4-yl]-1-(propan-2-yl)-7-(trifluoromethyl)-1H,2H,3H,5H-imidazo[1,2-a]pyrimidine-2,5-dione] displayed an IC50 of 0.118 µM.
Under `Cc1cn2c(=O)c(-c3cnn(CC(F)(F)C(F)(F)F)c3)c(C(F)(F)F)nc2n1-c1ccccc1` [Example 100, 2-methyl-6-[1-(2,2,3,3,3-pentafluoropropyl)-1H-pyrazol-4-yl]-1-phenyl-7-(trifluoromethyl)-1H,5H-imidazo[1,2-a]pyrimidin-5-one] stands 4.12 µM; under `Cc1cn2c(=O)c(-c3cnn(C[C@H]4CC4(F)F)c3)c(C(F)(F)F)nc2[nH]1` (single isomer, unassigned) [Example 107], 0.0125 µM; under `O=c1c(-c2cnn(CC(F)(F)C(F)(F)F)c2)c(C(F)(F)F)nc2n1CCS2` [Example 22, 6-[1-(2,2,3,3,3-pentafluoropropyl)-1H-pyrazol-4-yl]-7-(trifluoromethyl)-2H,3H,5H-[1,3]thiazolo[3,2-a]pyrimidin-5-one], 0.0143 µM.
Next, `Cc1cn2c(=O)c(-c3cnn(CC4CC4(F)F)c3)c(C(F)(F)F)nc2[nH]1` (racemic) [Example 76, 6-{1-[(2,2-difluorocyclopropyl)methyl]-1H-pyrazol-4-yl}-2-methyl-7-(trifluoromethyl)-1H,5H-imidazo[1,2-a]pyrimidin-5-one]: 0.026 µM; `Cc1cn2c(=O)c(-c3cnn(CCC(F)(F)F)c3)c(C(F)(F)F)nc2n1CC1CC1` [Example 66, 1-(cyclopropylmethyl)-2-methyl-7-(trifluoromethyl)-6-[1-(3,3,3-trifluoropropyl)-1H-pyrazol-4-yl]-1H,5H-imidazo[1,2-a]pyrimidin-5-one]: 0.0066 µM.
Next, `Cn1ncn2c(=O)c(-c3cnn(CC(F)(F)C(F)(F)F)c3)c(C(F)(F)F)nc12` [Example 27, 1-methyl-6-[1-(2,2,3,3,3-pentafluoropropyl)-1H-pyrazol-4-yl]-7-(trifluoromethyl)-1H,5H-[1,2,4]triazolo[4,3-a]pyrimidin-5-one]: 0.0026 µM.
As for `Cc1cn2c(=O)c(-c3cnn(CC4CC(F)(F)C4)c3)c(C(F)(F)F)nc2n1C` [Example 60, 6-{1-[(3,3-difluorocyclobutyl)methyl]-1H-pyrazol-4-yl}-1,2-dimethyl-7-(trifluoromethyl)-1H,5H-imidazo[1,2-a]pyrimidin-5-one], the midpoint of inhibition, the IC50, lay at 0.0578 µM.
Next, `C#CCn1c(C)cn2c(=O)c(-c3cnn(CC(F)(F)C(F)(F)F)c3)c(C(F)(F)F)nc12` [Example 85, 2-methyl-6-[1-(2,2,3,3,3-pentafluoropropyl)-1H-pyrazol-4-yl]-1-(prop-2-yn-1-yl)-7-(trifluoromethyl)-1H,5H-imidazo[1,2-a]pyrimidin-5-one]: 0.0071 µM; `O=c1c(-c2cnn(CC(F)(F)C(F)(F)F)c2)c(C(F)(F)F)nc2sc(C3CC3)nn12` [Example 11, 2-cyclopropyl-6-[1-(2,2,3,3,3-pentafluoropropyl)-1H-pyrazol-4-yl]-7-(trifluoromethyl)-5H-[1,3,4]thiadiazolo[3,2-a]pyrimidin-5-one]: 0.133 µM.
